Read-outs that look alike come from different tables or passages of the source.
Test system: CWR22RV1 cells
Assay: Inhibition of proliferation of CWR22RV1 cells (CCK-8)
Format: cell-based, human
Details: 6 days culture
Protocol: 1) CWR22RV1 cells were subcultured in cell culture medium, and the cells in good growth condition were seeded in a 96-well plate, 80 μL for each well, and the cell number in each well was 1500. The plate was incubated overnight in a 37° C., 5% CO2 cell incubator. 2) The drug was prepared as 30 mM stock solution with dimethyl sulfoxide (DMSO). Prior to use, the stock solution was diluted 3 times with DMSO, and then further diluted as 3-fold gradient to obtain 9 concentration gradients. Then, each concentration of compound was diluted 200 times with the culture solution (ensuring that the DMSO concentration in the culture system was 0.1%), and two replicate wells were set for each concentration. 20 μL of diluted compound solution was added to the cell culture well (with final concentrations of 10 μM, 3.3 μM. 1.1 μM . . . ), and the plate was gently shaken to mix. In addition, 3 negative control wells containing only cells and 3 blank control wells containing only culture medium were included (6 wells were each added 20 μL DMSO diluted 200 times with culture medium). 2. Result detection: (1) After culturing for 6 days, 10 μL CCK-8 was added to each well, and the plate was continually cultured in a 37° C., 5% CO2 cell incubator for 2.5 h. (2) The absorbance (OD value) was detected at 450 nm using a multifunctional microplate reader. (3) The data were analyzed by Dose-response-inhibition equation in the software GraphPad Prism6, and the IC50 value was obtained.

[1] = Homo sapiens, CWR22Rv1, 144 h, read-out: IC50 against CWR22RV1 cells
[2] = Homo sapiens, CWR22Rv1, 144 h, read-out: IC50 against CWR22RV1 cells (text)

| Compound | IC50 [1] [nM] | IC50 [2] [nM] | IC50 (read-out: IC50 against CWR22RV1 cells) [nM] |
| --- | --- | --- | --- |
| CNC(=O)Nc1ccc2c(c1)CC[C@@]21OC(=O)N(CC(=O)N2CCCC2c2cccc(OC)c2)C1=O (stereo partly drawn) [Example 335, 1-((1R)-3′-(2-(2-(3-methoxyphenyl)pyrrolidin-1-yl)-2-oxoethyl)-2′,4′-dioxo-2,3-dihydrospiro[indene-1,5′-oxazolidine]-5-yl)-3-methylurea] | > 2000 | – | – |
| CNC(=O)Nc1ccc2c(c1)CC[C@@]21OC(=O)N(CC(=O)N2CCCC2c2ccccc2Br)C1=O (stereo partly drawn) [Example 336, 1-((1R)-3′-(2-(2-(2-bromophenyl)pyrrolidin-1-yl)-2-oxoethyl)-2′,4′-dioxo-2,3-dihydrospiro[indene-1,5′-oxazolidine]-5-yl)-3-methylurea] | > 2000 | – | – |
| CNC(=O)Nc1ccc2c(c1)CC[C@@]21OC(=O)N(CC(=O)N2C(C)CCC2c2ccc(F)cc2OC)C1=O (stereo partly drawn) [Example 337, 1-((1R)-3′-(2-(2-(4-fluoro-2-methoxyphenyl)-5-methylpyrrolidin-1-yl)-2-oxoethyl)-2′,4′-dioxo-2,3-dihydrospiro[indene-1,5′-oxazolidine]-5-yl)-3-methylurea] | 500 to 2000 | – | – |
| CNC(=O)Nc1ccc2c(c1)CC[C@@]21OC(=O)N(CC(=O)N2CCCC2c2ccc(F)cc2OC)C1=O (stereo partly drawn) [Example 340, 1-((1R)-3′-(2-(2-(4-fluoro-2-methoxyphenyl)pyrrolidin-1-yl)-2-oxoethyl)-2′,4′-dioxo-2,3-dihydrospiro[indene-1,5′-oxazolidine]-5-yl)-3-methylurea] | > 2000 | – | – |
| CNC(=O)Nc1ccc2c(c1)CC[C@@]21OC(=O)N(CC(=O)N2CCCC2c2ccc(OC)cc2OC)C1=O (stereo partly drawn) [Example 341, 1-((1R)-3′-(2-(2-(2,4-dimethoxyphenyl)pyrrolidin-1-yl)-2-oxoethyl)-2′,4′-dioxo-2,3-dihydrospiro[indene-1,5′oxazolidin]-5-yl)-3-methylurea] | > 2000 | – | – |
| CNC(=O)Nc1ccc2c(c1)CC[C@@]21OC(=O)N(CC(=O)N2CCCC2c2cccc[n+]2[O-])C1=O (stereo partly drawn) [Example 343, 2-(1-(2-((R)-5-(3-methylureido)-2′,4′-dioxo-2,3-dihydrospiro[indene-1,5′-oxazole]-3′-yl)acetyl)pyrrolidin-2-yl)pyridin-1-oxide] | > 2000 | – | – |
| CNC(=O)Nc1ccc2c(c1)CC[C@@]21OC(=O)N(CC(=O)N2CCCC2c2ccc(F)cc2C)C1=O (stereo partly drawn) [Example 347, 1-((1R)-3′-(2-(2-(4-fluoro-2-methylphenyl)pyrrolidin-1-yl)-2-oxoethyl)-2′,4′-dioxo-2,3-dihydrospiro[indene-1,5′-oxazolidine]-5-yl)-3-methylurea] | 500 to 2000 | – | – |
| CNC(=O)Nc1ccc2c(c1)CC[C@@]21OC(=O)N(CC(=O)N2C(C)CCC2c2ccc(F)cc2)C1=O (stereo partly drawn) [Example 348, 1-((1R)-3′-(2-(2-(4-fluorophenyl)-5-methylpyrrolidin-1-yl)-2-oxoethyl)-2′,4′-dioxo-2,3-dihydrospiro[indene-1,5′-oxazolidine]-5-yl)-3-methylurea] | ≤ 500 | ≤ 500 | – |
| CNC(=O)Nc1ccc2c(c1)CC[C@@]21OC(=O)N(CC(=O)N2C(C)CCC2(c2ccc(OC)cc2)c2ccc(OC)cc2)C1=O (stereo partly drawn) [Example 349, 1-((1R)-3′-(2-(2,2-bis(4-methoxyphenyl)-5-methylpyrrolidin-1-yl)-2-oxoethyl)-2′,4′-dioxo-2,3-dihydrospiro[indene-1,5′-oxazolidine]-5-yl)-3-methylurea] | > 2000 | – | – |
| CNC(=O)Nc1ccc2c(c1)CC[C@@]21OC(=O)N(CC(=O)N2C(C)CCC2c2ccc(Cl)cc2C)C1=O (stereo partly drawn) [Example 351, 1-((1R)-3′-(2-(2-(4-chloro-2-methylphenyl)-5-methylpyrrolidin-1-yl)-2-oxoethyl)-2′,4′-dioxo-2,3-dihydrospiro[indene-1,5′-oxazolidine]-5-yl)-3-methylurea] | ≤ 500 | ≤ 500 | – |
| CNC(=O)Nc1ccc2c(c1)CC[C@@]21OC(=O)N(CC(=O)N2C(C)CCC2c2ccc(C(F)(F)F)cc2C)C1=O (stereo partly drawn) [Example 352, 1-methyl-3-((1R)-3′-(2-(2-methyl-5-(2-methyl-4-(trifluoromethyl)phenyl)pyrrolidin-1-yl)-2-oxoethyl)-2′,4′-dioxo-2,3-dihydrospiro[indene-1,5′-oxazolidine]-5-yl)urea] | > 2000 | – | – |
| CNC(=O)Nc1ccc2c(c1)CC[C@@]21OC(=O)N(CC(=O)N2C(C)CCC2c2ccc(F)cc2C)C1=O (stereo partly drawn) [Example 353, 1-((1R)-3′-(2-(2-(4-fluoro-2-methylphenyl)-5-methylpyrrolidin-1-yl)-2-oxoethyl)-2′,4′-dioxo-2,3-dihydrospiro[indene-1,5′-oxazolidine]-5-yl)-3-methylurea] | ≤ 500 | ≤ 500 | – |
| CNC(=O)Nc1ccc2c(c1)CC[C@@]21OC(=O)N(CC(=O)N2C(C)CCC2c2ccc(F)cc2Br)C1=O (stereo partly drawn) [Example 354, 1-((1R)-3′-(2-(2-(2-bromo-4-fluorophenyl)-5-methylpyrrolidin-1-yl)-2-oxoethyl)-2′,4′-dioxo-2,3-dihydrospiro[indene-1,5′-oxazolidine]-5-yl)-3-methylurea] | 500 to 2000 | – | – |
| CNC(=O)Nc1ccc2c(c1)CCC21OC(=O)N(CC(=O)N2CCCCC23CCN(C(C)=O)CC3)C1=O (centres unmarked) [Example 355, 1-(3′-(2-(9-acetyl-1,9--1-yl)-2-oxoethyl)-2′,4′-dioxo-2,3-dihydrospiro[indene-1,5′-oxazolidine]-5-yl)-3-methylurea] | > 2000 | – | – |
| CNC(=O)Nc1ccc2c(c1)CC[C@@]21OC(=O)N(CC(=O)N2C(C)CCC2c2ccc(F)cc2C(F)(F)F)C1=O (stereo partly drawn) [Example 356, 1-((1R)-3′-(2-(2-(4-fluoro-2-(trifluoromethyl)phenyl)-5-methylpyrrolidin-1-yl)-2-oxoethyl)-2′,4′-dioxo-2,3-dihydrospiro[indene-1,5′-oxazolidine]-5-yl)-3-methylurea] | > 2000 | – | – |
| CNC(=O)Nc1ccc2c(c1)CC[C@@]21OC(=O)N(CC(=O)N2[C@@H](C)CC[C@H]2C2CCCCC2)C1=O [Example 357, 1-((R)-3′-(2-((2S,5S)-2-cyclohexyl-5-methylpyrrolidin-1-yl)-2-oxoethyl)-2′,4′-dioxo-2,3-dihydrospiro[indene-1,5′-oxazolidine]-5-yl)-3-methylurea] | ≤ 500 | ≤ 500 | – |
| CNC(=O)Nc1ccc2c(c1)CC[C@@]21OC(=O)N(CC(=O)N2C(C)CCC2c2ccc(F)c(Cl)c2)C1=O (stereo partly drawn) [Example 359, 1-((1R)-3′-(2-(2-(3-chloro-4-fluorophenyl)-5-methylpyrrolidin-1-yl)-2-oxoethyl)-2′,4′-dioxo-2,3-dihydrospiro[indene-1,5′-oxazolidine]-5-yl)-3-methylurea] | ≤ 500 | ≤ 500 | – |
| CNC(=O)Nc1ccc2c(c1)CCC21OC(=O)N(CC(=O)N2[C@@H](CO)CC[C@H]2c2ccc(F)cc2)C1=O (stereo partly drawn) [Example 361, 1-(3′-(2-((2S,5R)-2-(4-fluorophenyl)-5-(hydroxymethyl)pyrrolidin-1-yl)-2-oxoethyl)-2′,4′-dioxo-2,3-dihydrospiro[indene-1,5′-oxazolidine]-5-yl)-3-methylurea] | 500 to 2000 | – | – |
| CNC(=O)Nc1ccc2c(c1)CC[C@@]21OC(=O)N(CC(=O)N2C(c3ccc(F)cc3)CC[C@H]2CO)C1=O (stereo partly drawn) [Example 363, 1-((1R)-3′-(2-((5S)-2-(4-fluorophenyl)-5-(hydroxymethyl)pyrrolidin-1-yl)-2-oxoethyl)-2′,4′-dioxo-2,3-dihydrospiro[indene-1,5′-oxazolidine]-5-yl)-3-methylurea] | > 2000 | – | – |
| CNC(=O)Nc1ccc2c(c1)CC[C@@]21OC(=O)N(CC(=O)N2C(c3ccc(F)cc3)CCC2(C)C)C1=O (stereo partly drawn) [Example 365, 1-((1R)-3′-(2-(5-(4-fluorophenyl)-2,2-dimethylpyrrolidin-1-yl)-2-oxoethyl)-2′,4′-dioxo-2,3-dihydrospiro[indene-1,5′-oxazolidine]-5-yl)-3-methylurea] | 500 to 2000 | – | – |
| CNC(=O)Nc1ccc2c(c1)CC[C@@]21OC(=O)N(CC(=O)N2C(c3ccc(F)c(F)c3)CCC2(C)C)C1=O (stereo partly drawn) [Example 366, 1-((1R)-3′-(2-(5-(3,4-difluorophenyl)-2,2-dimethylpyrrolidin-1-yl)-2-oxoethyl)-2′,4′-dioxo-2,3-dihydrospiro[indene-1,5′-oxazolidine]-5-yl)-3-methylurea] | 500 to 2000 | – | – |
| C=C[C@H]1CC[C@@H](c2ccc(F)cc2)N1C(=O)CN1C(=O)O[C@@]2(CCc3cc(NC(=O)NC)ccc32)C1=O [Example 367, 1-((R)-3′-(2-((2S,5R)-2-(4-fluorophenyl)-5-vinylpyrrolidin-1-yl)-2-oxoethyl)-2′,4′-dioxo-2,3-dihydrospiro[indene-1,5′-oxazolidine]-5-yl)-3-methylurea] | 500 to 2000 | – | – |
| CNC(=O)Nc1ccc2c(c1)CC[C@@]21OC(=O)N(CC(=O)N2C(C)(C)CCCC2(C)C)C1=O [Example 368] | > 2000 | – | – |
| CNC(=O)Nc1ccc2c(c1)C1(CC1)CC21OC(=O)N(CC(=O)N2[C@@H](C)CC[C@H]2c2ccc(F)cc2)C1=O (stereo partly drawn) [Example 373, 1-(3′-(2-((2S,5S)-2-(4-fluorophenyl)-5-methylpyrrolidin-1-yl)-2-oxoethyl)-2′,4′-dioxo-dihydrospiro[cyclopropane-1,1′-indene-3′,5′-oxazolidin]-6′-yl)-3-methylurea] | – | – | > 2000 |
